Results from ChEMBL document CHEMBL1139896, “Synthesis, characterization, and estrogen receptor binding affinity of flavone-, indole-, and furan-estradiol conjugates” (Bioorg Med Chem Lett, 2007).

Target: T1, Estrogen receptor (Homo sapiens, UniProt P03372)
T1 sequence (P03372 whole entry): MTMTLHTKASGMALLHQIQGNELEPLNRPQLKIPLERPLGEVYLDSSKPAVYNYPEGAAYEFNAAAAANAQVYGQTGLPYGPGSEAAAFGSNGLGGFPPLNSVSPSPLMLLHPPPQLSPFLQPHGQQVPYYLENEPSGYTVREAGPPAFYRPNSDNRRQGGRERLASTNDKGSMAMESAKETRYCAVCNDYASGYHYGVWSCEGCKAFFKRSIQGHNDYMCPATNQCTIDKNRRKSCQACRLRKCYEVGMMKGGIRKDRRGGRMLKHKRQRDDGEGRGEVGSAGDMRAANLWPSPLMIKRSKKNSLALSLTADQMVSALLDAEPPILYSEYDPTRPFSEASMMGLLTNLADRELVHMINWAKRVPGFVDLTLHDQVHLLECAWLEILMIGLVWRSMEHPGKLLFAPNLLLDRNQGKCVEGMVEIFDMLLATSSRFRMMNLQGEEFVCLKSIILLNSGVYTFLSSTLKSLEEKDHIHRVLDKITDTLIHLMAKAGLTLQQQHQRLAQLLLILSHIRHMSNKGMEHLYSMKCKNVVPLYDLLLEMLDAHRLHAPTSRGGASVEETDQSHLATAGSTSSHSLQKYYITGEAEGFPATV
Description: Binding affinity to ERalpha

| SMILES | Ki [nM] |
| --- | --- |
| C[C@]12CC[C@@H]3c4ccc(O)cc4CC[C@H]3[C@@H]1CC[C@@]2(O)C#CCCCCC#Cc1c(-c2ccccc2)oc2ccccc2c1=O | 63100 |
| C[C@]12CC[C@@H]3c4ccc(O)cc4CC[C@H]3[C@@H]1CC[C@@]2(O)C#Cc1cccc2c(=O)cc(-c3ccccc3)oc12 | 100 |
| C[C@]12CC[C@@H]3c4ccc(O)cc4CC[C@H]3[C@@H]1CC[C@@]2(O)C#CCCCCC#Cc1cccc2c(=O)cc(-c3ccccc3)oc12 | 382 |
| COc1ccccc1-c1[nH]c2ccccc2c1C#C[C@]1(O)CC[C@H]2[C@@H]3CCc4cc(O)ccc4[C@H]3CC[C@@]21C | 35 |
| C[C@]12CC[C@@H]3c4ccc(O)cc4CC[C@H]3[C@@H]1CC[C@@]2(O)C#Cc1c(-c2ccccc2O)[nH]c2ccccc12 | 75 |
| Cc1ccc(S(=O)(=O)Oc2ccc3c(C#CCCCCC#C[C@]4(O)CC[C@H]5[C@@H]6CCc7cc(O)ccc7[C@H]6CC[C@@]54C)c(-c4ccc(OCc5ccccc5)cc4)oc3c2)cc1 | 17900 |
| C[C@]12CC[C@@H]3c4ccc(O)cc4CC[C@H]3[C@@H]1CC[C@@]2(O)C#Cc1c(-c2ccccc2)oc2ccccc2c1=O | 37 |
| Cc1ccc(S(=O)(=O)Oc2ccc3c(C#C[C@]4(O)CC[C@H]5[C@@H]6CCc7cc(O)ccc7[C@H]6CC[C@@]54C)c(-c4ccc(OCc5ccccc5)cc4)oc3c2)cc1 | 332 |
